Assay results: patent publication US9725432B2, “Pyrimidine derivatives for the treatment of bacterial diseases” (JANSSEN R&D IRELAND, priority 2012, dated 2017)
Converted amounts (≈) assume the structure as drawn.

Columns and labels:
Staphylococcus aureus [1] = experiment: MIC determination of compounds on ECO/PAE/STA in microplates; format: cell-based; details: lowest concentration with no growth (90% inhibition of growth), 18-20 hours at 37° C., visual, strain not given
Staphylococcus aureus [2] = experiment: Antibacterial susceptibility testing: IC90 determination (broth microdilution, resazurin fluorescence); format: cell-based; details: 90% inhibitory concentration for bacterial growth, Mueller Hinton broth, 35° C., 16-20 hours, strain not given
Procedure: Preparation of Bacterial Suspensions for Susceptibility Testing
The following bacteria were used: Staphylococcus aureus ATCC 29213, methicillin-resistant Staphylococcus aureus (MRSA) ATCC 700788 and Escherichia coli ATCC 35218. The bacteria used in this study were grown overnight in flasks containing 100 ml Mueller-Hinton broth (Difco cat. nr. 0757-17) in sterile de-ionized water, with shaking, at 37° C. Stocks were store at −70° C. until use.
Bacteria were incubated on a tryptic soy agar plate containing 5% sheep blood (Becton Dickinson cat. nr. 254053) for 18-24 hours at 35° C. in aerobic conditions (first passage). For the second passage, fresh Mueller-Hinton broth is inoculated with 5-10 colonies and grown overnight at 35° C. until turbidity (reaching log-phase) in aerobic conditions is reached. The bacterial suspension is then adjusted to 0.5 McFarland density and further diluted 1:100 in Mueller Hinton broth medium. This is used as inoculum.
Antibacterial Susceptibility Testing: IC90 Determination
MIC assays were performed by the broth microdilution method in a 96-well format (flat-bottom microtitre plates) with a final volume of 0.1 ml Mueller Hinton broth containing two-fold serial dilutions of compounds and inoculated with 5×10^5 CFU/ml of bacteria (standard inoculum size according to CLSI guidelines). Inhibitors are typically varied over the range of 63 to 0.49 μM. The final DMSO concentration in the assay was 1.25% (maximum tolerable DMSO concentration=6%). In the assays where the effect of human serum on the activity of the compounds against S. aureus was tested, human serum was added at a final concentration of 10%. The plates were incubated at 35° C. for 16-20 hours. At the end of incubation the bacterial growth was quantified fluorometrically. For this, resazurin was added to all wells and the plates were re-incubated. The incubation time is dependent on the type of bacteria. A change in color from blue to pink indicated the growth of bacteria. The fluorescence was read in computer-controlled fluorometer (Fluoroskan Ascent FL, Labsystems) at an excitation wavelength 540 nm and an emission wavelength of 590 nm. The % growth inhibition achieved by the compounds was calculated according to standard methods. The IC90 (expressed in μg/ml) was defined as the 90% inhibitory concentration for bacterial growth. A panel of reference compounds were simultaneously tested for QC approval.

Cytotoxicity MTT assay = format: cell-based; details: human, HelaM cells, concentration that causes 50% reduction in cell viability
Procedure: Cytotoxicity of the compounds was evaluated using the MTT assay. Human HelaM cells grown in 96-well plates were exposed to serial dilutions of the tested compounds (final volume of 0.2 ml) and incubated for 72 hours at 37° C. and 5% CO2 Inhibitors are typically varied over the range of 25 to 0.8 μM. The final DMSO concentration in the assay is 0.5%. MTT (3-(4,5-Dimethylthiazol-2-yl)-2,5-diphenyltetrazolium bromide, a tetrazole) was added and reduced to purple formazan only in living cells. Solubilization of the formazan crystals was achieved by adding 100 μl 2-propanol. Cell viability was determined by measuring the absorbance of the reduced formazan, giving a purple color, at 540 nm and 690 nm. The absorbance measured at 690 nm was automatically subtracted from the absorbance at 540 nm, to eliminate the effects of non-specific absorption. The percent cytotoxicity achieved by the compounds was calculated according to standard methods. Cytotoxicity is reported as CC50, the concentration that causes a 50% reduction in cell viability.

Compound	MIC90 (Staphylococcus aureus [1]) [µg/mL]	melting point [°C]	IC90 (Staphylococcus aureus [2]) [µg/mL]	CC50 at 72 h (Cytotoxicity MTT assay) [µg/mL]
COc1cccc(-c2cnc(-c3ccncc3)nc2C2CCN(C3CC3)CC2)c1 [Compound 12]	–	153 to 156	5.78 (≈ 15 µM)	> 9.7
COc1cccc(-c2cnc(-c3ccncc3)nc2C2CCN(Cc3ccc(F)cc3)CC2)c1 [Compound 29]	–	152	3.45 (≈ 7.59 µM)	8.5 (≈ 18.7 µM)
COc1cccc(-c2cnc(-c3ccncc3)nc2C2CCN(Cc3ccccc3O)CC2)c1 [Compound 10]	–	142 to 146	1.68 (≈ 3.71 µM)	9.9 (≈ 21.9 µM)
Cc1cccc(-c2cnc(-c3ccncc3)nc2C2CCN(CC(C)(C)C)CC2)c1 [Compound 15]	–	123 to 127	1.49 (≈ 3.72 µM)	> 10.1
COc1cccc(-c2cnc(-c3cccnc3)nc2C2CCN(CC(C)(C)C)CC2)c1 [Compound 24]	–	222 to 224	1.68 (≈ 4.03 µM)	> 11.4
COc1cccc(-c2cnc(-c3ccncc3)nc2C2CCN(Cc3ccc(F)cc3F)CC2)c1 [Compound 32]	–	138	3.27 (≈ 6.92 µM)	5.5 (≈ 11.6 µM)
CC(C)(C)CN1CCC(c2nc(-c3ccncc3)ncc2-c2cccc(C(F)(F)F)c2)CC1 [Compound 40]	–	112 to 114	0.52 (≈ 1.14 µM)	7 (≈ 15.4 µM)
COc1cccc(-c2cnc(-c3ccncc3)nc2C2CCN(Cc3cc(F)cc(F)c3)CC2)c1 [Compound 48]	–	181	3.16 (≈ 6.69 µM)	2.2 (≈ 4.66 µM)
COc1cccc(-c2cnc(-c3ccncc3)nc2C2CCN(Cc3ccc(C)cc3)CC2)c1 [Compound 35]	–	141	13.3 (≈ 29.5 µM)	7.7 (≈ 17.1 µM)
CN(C)c1cccc(-c2cnc(-c3ccncc3)nc2C2CCN(CC(C)(C)C)CC2)c1 [Compound 37]	–	140 to 142	3.04 (≈ 7.08 µM)	9.2 (≈ 21.4 µM)
COc1cccc(-c2cnc(-c3ccncc3)nc2C2CCN(CC(C)(C)C)CC2)c1 [Compound 6]	–	118	1.05 (≈ 2.52 µM)	> 10.5
Cc1cccc(-c2cnc(-c3ccncc3)nc2C2CCN(Cc3cccc(F)c3)CC2)c1 [Compound 14]	–	195 to 196	9.16 (≈ 20.9 µM)	> 11
COc1cccc(-c2cnc(-c3ccncc3)nc2N2CCC(NC(=O)C(C)Oc3ccccc3)CC2)c1 (stereo not shown) [Compound 22]	–	106 to 108	5.16 (≈ 10.1 µM)	8.5 (≈ 16.7 µM)
COc1cccc(-c2cnc(-c3ccncc3)nc2C2CCN(Cc3cccs3)CC2)c1 [Compound 19]	–	130	5.57 (≈ 12.6 µM)	> 11.1
COc1cccc(-c2cnc(-c3ccncc3)nc2C2CCN(CC3CCCCC3)CC2)c1 [Compound 17]	–	130	13.4 (≈ 30.2 µM)	> 11.1
C#CCN1CCC(c2nc(-c3ccncc3)ncc2-c2cccc(OC)c2)CC1 [Compound 49]	–	160	12.2 (≈ 31.6 µM)	> 9.7
COc1cccc(-c2cnc(-c3ccncc3)nc2C2CCN(Cc3ccccc3C(F)(F)F)CC2)c1 [Compound 46]	–	144	4.1 (≈ 8.13 µM)	4.2 (≈ 8.32 µM)
COc1cccc(-c2cnc(-c3ccncc3)nc2C2CCN(Cc3c(F)cccc3F)CC2)c1 [Compound 47]	–	184	1.74 (≈ 3.68 µM)	2.1 (≈ 4.44 µM)
COc1cccc(-c2cnc(-c3ccncc3)nc2C2CCN(Cc3ccc(Cl)cc3O)CC2)c1 [Compound 9]	–	119 to 123	0.97 (≈ 1.99 µM)	5.9 (≈ 12.1 µM)

The next lines start with results.

MIC90 (Staphylococcus aureus [1]) [µg/mL]	melting point [°C]	IC90 (Staphylococcus aureus [2]) [µg/mL]	Compound	CC50 at 72 h (Cytotoxicity MTT assay) [µg/mL]
0.125 (≈ 0.273 µM)	–	–	COc1cccc(-c2cnc(-c3ccc(OC)nc3)nc2C2CCN(CC(F)(F)F)CC2)c1 [Compound 79]	–
1 (≈ 2.36 µM)	182	–	CC(C)(C#N)CN1CCC(c2nc(-c3cncnc3)ncc2-c2cccc(C#N)c2)CC1 [Compound 82]	–
0.125 (≈ 0.277 µM)	207	–	COc1cccc(-c2cnc(-c3ccc(C#N)cc3)nc2C2CCN(CC(C)(C)C#N)CC2)c1 [Compound 86]	–
0.125 (≈ 0.279 µM)	249 to 251	–	N#Cc1ccc(-c2ncc(-c3cccc(C#N)c3)c(C3CCN(CC(F)(F)F)CC3)n2)cc1 [Compound 84]	–
0.25 (≈ 0.506 µM)	–	–	COc1cccc(-c2cnc(-c3ccc(Br)cc3)nc2C2CCN(CC(C)(C)C)CC2)c1 [Compound 90]	–
0.125 (≈ 0.276 µM)	180 to 182	–	COc1cccc(-c2cnc(-c3ccc(C#N)cc3)nc2C2CCN(CC(F)(F)F)CC2)c1 [Compound 83]	–
0.125 (≈ 0.284 µM)	157 to 158	–	N#Cc1cccc(-c2cnc(-c3ccc(F)cc3)nc2C2CCN(CC(F)(F)F)CC2)c1 [Compound 76]	–
0.125 (≈ 0.261 µM)	–	–	CC(C)(C)S(=O)(=O)N1CCC(c2nc(-c3ccc(F)cc3)ncc2-c2cccc(C#N)c2)CC1 [Compound 89]	–
0.5 (≈ 1.18 µM)	79 to 87	–	CC(C)(C#N)CN1CCC(c2nc(-c3ccncc3)ncc2-c2cccc(C#N)c2)CC1 [Compound 75]	–
0.125 (≈ 0.277 µM)	–	–	C#Cc1ccc(-c2ncc(-c3cccc(OC)c3)c(C3CCN(CC(C)(C)C#N)CC3)n2)cc1 [Compound 92]	–
0.25 (≈ 0.565 µM)	75 to 80	–	CC(C)(C)C(=O)N1CCC(c2nc(-c3ccc(F)cc3)ncc2-c2cccc(C#N)c2)CC1 [Compound 77]	–
0.5 (≈ 1.14 µM)	–	–	C#Cc1ccc(-c2ncc(-c3cccc(OC)c3)c(C3CCN(CC(C)(C)C)CC3)n2)cc1 [Compound 91]	–
–	247 to 249	0.13 (≈ 0.298 µM)	CC(C)(C)CN1CCC(c2nc(-c3ccc(C#N)cc3)ncc2-c2cccc(C#N)c2)CC1 [Compound 65]	> 4.4
> 64	–	–	CC(C)(C)CNCCNc1nc(-c2ccncc2)ncc1-c1cccc(C#N)c1 [Compound 73]	–
0.125 (≈ 0.281 µM)	119	–	COc1cccc(-c2cnc(-c3ccc(F)cc3)nc2C2CCN(CC(C)(C)C#N)CC2)c1 [Compound 78]	–
–	163 to 170	6.1 (≈ 14.8 µM)	CC(C)(C)CN1CCC(c2nc(-c3cncnc3)ncc2-c2cccc(C#N)c2)CC1 [Compound 68]	> 10.4
–	57 to 113	> 25.9	CC(C)(C)CN1CCCC(c2nc(-c3cccnc3)ncc2-c2cccc(C#N)c2)C1 (stereo not shown) [Compound 62]	> 10.3
0.125 (≈ 0.247 µM)	–	–	COc1cccc(-c2cnc(-c3ccc(Br)cc3)nc2C2CCN(CC(C)(C)C#N)CC2)c1 [Compound 88]	–
–	125 to 126	2.74 (≈ 7.32 µM)	CC(C)(C)CN1CCC(c2nc(C3CC3)ncc2-c2cccc(C#N)c2)CC1 [Compound 63]	> 9.4
–	163 to 164	> 26.7	N#Cc1cccc(-c2cnc(-c3ccncc3)nc2C2CCCN(CC(F)(F)F)C2)c1 (stereo not shown) [Compound 59]	> 10.6
–	144 to 145	0.81 (≈ 1.83 µM)	COc1ccc(-c2ncc(-c3cccc(C#N)c3)c(C3CCN(CC(C)(C)C)CC3)n2)cn1 [Compound 67]	> 11.1
–	208	9.61 (≈ 24 µM)	Cc1ccccc1-c1cnc(-c2ccncc2)nc1C1CCN(CC(C)(C)C)CC1 [Compound 50]	> 4
0.125 (≈ 0.277 µM)	–	–	C#Cc1ccc(-c2ncc(-c3cccc(OC)c3)c(C3CCN(CC(F)(F)F)CC3)n2)cc1 [Compound 93]	–
–	52 to 92	> 26.7	N#Cc1cccc(-c2cnc(-c3cccnc3)nc2C2CCCN(CC(F)(F)F)C2)c1 (stereo not shown) [Compound 60]	> 10.6
0.125 (≈ 0.273 µM)	–	–	COc1cccc(-c2cnc(-c3ccc(OC)nc3)nc2C2CCN(CC(C)(C)C#N)CC2)c1 [Compound 81]	–
